Source: patent US20100267561A1, “HERBICIDAL PYRIDAZINONE DERIVATIVES” (priority 2007, published 2010)

Assays:
Format in all cases: in vivo
[1] = system: morningglory (Ipomoea coccinea); assay: Test A pre-/postemergence plant response
Summary of the method: (§1)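 Seeds were planted in blended loam soil and sand, then treated preemergence by directed soil spray. At that time, emerged plants (one- to two-leaf, 2–10 cm) received postemergence applications of the same surfactant-containing formulation. Injury was assessed visually on a 0–100 scale after approximately 10 days.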

[2] = system: large crabgrass (Digitaria sanguinalis); assay: Test A pre-/postemergence plant response
Summary of the method: as §1

[3] = system: corn (Zea mays); assay: Test A pre-/postemergence plant response
Summary of the method: as §1

[4] = system: pigweed (Amaranthus retroflexus); assay: Test A pre-/postemergence plant response
Summary of the method: as §1

[5] = system: barnyardgrass (Echinochloa crus-galli); assay: Test A pre-/postemergence plant response
Summary of the method: as §1

[6] = system: canarygrass (Phalaris minor); assay: Test B postemergence plant response; conditions: for Plant response rating, Canarygrass: Postemergence
Summary of the method: (§2)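 Scoring: 0 means no effect and 100 complete control, judged by eye against controls after 13–15 days under greenhouse conditions following postemergence application at 2–18 cm plant height.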

[7] = system: chickweed (Stellaria media); assay: Test B postemergence plant response; conditions: for Plant response rating, Chickweed: Postemergence
Summary of the method: as §2

[8] = system: windgrass (Apera spica-venti); assay: Test B postemergence plant response; conditions: for Plant response rating, Windgrass: Postemergence
Summary of the method: as §2

[9] = system: winter barley (Hordeum vulgare); assay: Test B postemergence plant response; conditions: for Plant response rating, Barley: Postemergence, scale 0 to 100, 0 no effect, 100 complete control
Summary of the method: as §2

[10] = system: johnsongrass (Sorghum halepense); assay: Test B pre-/postemergence plant response; conditions: for Johnsongrass plant response rating: 8 g ai/ha
Summary of the method: (§3)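 Seeds were sown and sprayed preemergence, while plants at 2 to 18 cm (1- to 4-leaf stage) got postemergence sprays. Compounds were formulated in a non-phytotoxic solvent mixture with surfactant. After 13 to 15 days in a greenhouse, injury was rated visually against untreated controls, 0 (no effect) to 100 (complete control).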

[11] = system: Italian ryegrass (Lolium multiflorum); assay: Test B pre-/postemergence plant response; conditions: for Ryegrass, Italian plant response rating: 8 g ai/ha
Summary of the method: as §3

[12] = system: bermudagrass (Cynodon dactylon); assay: Test B pre-/postemergence plant response; conditions: for Bermudagrass plant response rating: 8 g ai/ha
Summary of the method: as §3

[13] = Postemergence, 31 g ai/ha, 0 to 100 scale, 0 no effect, 100 complete control
[14] = Postemergence, 125 g ai/ha, 0 to 100 scale, 0 no effect, 100 complete control
[15] = Preemergence, 31 g ai/ha, 0 to 100 scale, 0 is no effect, 100 is complete control
[16] = Preemergence, 125 g ai/ha, 0 to 100 scale (0 no effect, 100 complete control)
[17] = 8 g ai/ha, postemergence, 0-100 scale
[18] = 31 g ai/ha, scale 0 to 100, 0 no effect, 100 complete control
[19] = 62 g ai/ha, scale 0 to 100, 0 no effect, 100 complete control
[20] = Postemergence, 16 g ai/ha, scale 0 to 100
[21] = Postemergence, 31 g ai/ha, scale 0 to 100, 0 no effect, 100 complete control
[22] = Postemergence, 62 g ai/ha, scale 0 to 100, 0 no effect, 100 complete control
[23] = Preemergence, 16 g ai/ha, scale 0 to 100 (0 no effect, 100 complete control)
[24] = Preemergence, 31 g ai/ha, 0 to 100 scale, 0 no effect, 100 complete control
[25] = Preemergence, 62 g ai/ha, scale 0 to 100

Cc1cc(-c2ccc(C(F)(F)F)c(F)c2)nn1-c1c(O)c(C(F)(F)F)nn(C)c1=O [Compound 44]
Plant response rating, Morningglory [1, 13]: 0
Plant response rating, Morningglory [1, 14]: 0
Plant response rating, Morningglory [1, 15]: 0
Plant response rating, Morningglory [1, 16]: 0
Plant response rating, Crabgrass, Large [2, 13]: 50
Plant response rating, Crabgrass, Large [2, 14]: 100
Plant response rating, Crabgrass, Large [2, 15]: 20
Plant response rating, Crabgrass, Large [2, 16]: 100
Plant response rating, Corn [3, 13]: 70
Plant response rating, Corn [3, 14]: 90
Plant response rating, Corn [3, 15]: 30
Plant response rating, Corn [3, 16]: 80
Plant response rating, Pigweed [4, 13]: 0
Plant response rating, Pigweed [4, 14]: 0
Plant response rating, Pigweed [4, 15]: 0
Plant response rating, Pigweed [4, 16]: 0
Plant response rating, Barnyardgrass [5, 13]: 100
Plant response rating, Barnyardgrass [5, 14]: 100
Plant response rating, Barnyardgrass [5, 15]: 80
Plant response rating, Barnyardgrass [5, 16]: 100
Canarygrass plant response rating [6, 17]: 50
Plant response rating, Canarygrass ([6]; 16 g ai/ha, scale 0 to 100): 90
Plant response rating, Canarygrass [6, 18]: 90
Chickweed plant response rating [7, 17]: 0
Plant response rating, Chickweed ([7]; 16 g ai/ha, scale 0 to 100): 0
Plant response rating, Chickweed [7, 18]: 0
Plant response rating, Chickweed [7, 19]: 0
Windgrass plant response rating [8, 17]: 85
Plant response rating, Windgrass ([8]; 16 g ai/ha, scale 0 to 100): 85
Plant response rating, Windgrass [8, 19]: 100
Barley plant response rating [9, 17]: 15
Plant response rating, Barley ([9]; 16 g ai/ha): 20
Plant response rating, Barley ([9]; 31 g ai/ha): 20
Plant response rating, Barley ([9]; 62 g ai/ha): 20
Johnsongrass plant response rating ([10]; postemergence, 0-100 scale): 55
Plant response rating, Johnsongrass [10, 20]: 95
Plant response rating, Johnsongrass [10, 21]: 98
Plant response rating, Johnsongrass [10, 22]: 100
Plant response rating, Johnsongrass [10, 23]: 0
Plant response rating, Johnsongrass [10, 24]: 0
Plant response rating, Johnsongrass [10, 25]: 95
Johnsongrass plant response rating ([10]; Preemergence, scale 0 to 100): 0
Ryegrass, Italian plant response rating ([11]; postemergence, 0-100 scale): 90
Plant response rating, Ryegrass, Italian [11, 20]: 95
Plant response rating, Ryegrass, Italian [11, 21]: 100
Plant response rating, Ryegrass, Italian [11, 22]: 100
Plant response rating, Ryegrass, Italian [11, 23]: 90
Plant response rating, Ryegrass, Italian ([11]; Preemergence, 31 g ai/ha, scale 0 to 100 (0 no effect, 100 complete control)): 90
Plant response rating, Ryegrass, Italian [11, 25]: 100
Ryegrass, Italian plant response rating ([11]; Preemergence, scale 0 to 100): 20
Bermudagrass plant response rating ([12]; postemergence, 0-100 scale): 65
Plant response rating, Bermudagrass [12, 20]: 90
Plant response rating, Bermudagrass [12, 21]: 95
Plant response rating, Bermudagrass [12, 22]: 100
Bermudagrass plant response rating ([12]; Preemergence, scale 0 to 100 (0 no effect, 100 complete control)): 0
Plant response rating, Bermudagrass [12, 23]: 0
Plant response rating, Bermudagrass [12, 24]: 0
Plant response rating, Bermudagrass [12, 25]: 0
